Results from ChEMBL document CHEMBL1201862, “PubChem BioAssay data set” (2004).
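Grown in 96-well plates, cells were treated for 48 hours with each compound at five concentrations. Insufficient inhibition: endpoint recorded as highest concentration tested. The concentration for 50% growth inhibition is given as GI50.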 Active and inactive are the calls of the source. Rule as the data show it: active = GI50 up to about 1.1 µM and inactive = higher.

Key:
Experiment in all cases: inhibition of tumour cell growth, NCI panel, 48 h
A498 = system: A498
ACHN = system: ACHN
CCRF-CEM = system: CCRF-CEM
COLO 205 = system: COLO 205
HT-29 = system: HT-29
K562 = system: K562
M14 = system: M14
MDA-MB-231 = system: MDA-MB-231
MDA-N = system: MDA-N
NCI-H23 = system: NCI-H23
NCI/ADR-RES = system: NCI/ADR-RES
OVCAR-3 = system: OVCAR-3
SF-268 = system: SF-268
SK-MEL-28 = system: SK-MEL-28
SNB-75 = system: SNB-75
SR = system: SR
U-251 = system: U-251
CAKI-1 = system: CAKI-1
NCI-H522 = system: NCI-H522

Structure (SMILES)	GI50 (A498)	GI50 (ACHN)	GI50 (CCRF-CEM)	GI50 (COLO 205)	GI50 (HT-29)	GI50 (K562)	GI50 (M14)	GI50 (MDA-MB-231)	GI50 (MDA-N)	GI50 (NCI-H23)	GI50 (NCI/ADR-RES)	GI50 (OVCAR-3)	GI50 (SF-268)	GI50 (SK-MEL-28)	GI50 (SNB-75)	GI50 (SR)	GI50 (U-251)	GI50 (CAKI-1)	GI50 (NCI-H522)
CCOP(=O)(OCC)C1CC(O)CN1OC(=O)C(C)(C)C (stereo not given)	> 100 µM (inactive)	> 100 µM (inactive)	> 100 µM (inactive)	> 100 µM (inactive)	> 100 µM (inactive)	> 100 µM (inactive)	> 100 µM (inactive)	> 100 µM (inactive)	> 100 µM (inactive)	> 100 µM (inactive)	> 100 µM (inactive)	> 100 µM (inactive)	> 100 µM (inactive)	> 100 µM (inactive)	> 100 µM (inactive)	> 100 µM (inactive)	> 100 µM (inactive)		
COC(=O)C(Cc1c(C2Nc3ccccc3C2CC(NC(=O)CNC(C)=O)C(=O)OC)[nH]c2ccccc12)NC(=O)CNC(C)=O (stereo not given)	> 100 µM (inactive)	> 100 µM (inactive)	> 100 µM (inactive)	> 100 µM (inactive)	> 100 µM (inactive)	> 100 µM (inactive)	> 100 µM (inactive)	> 100 µM (inactive)	> 100 µM (inactive)	> 100 µM (inactive)	> 100 µM (inactive)		> 100 µM (inactive)	> 100 µM (inactive)	7.82 µM (inactive)	16.3 µM (inactive)	> 100 µM (inactive)	> 100 µM (inactive)	> 100 µM (inactive)
COC(=O)C1CCC(=O)N1C(c1cc(OC)c(OC)c(OC)c1)c1cccc2ccccc12 (stereo not given)	> 100 µM (inactive)	> 100 µM (inactive)			35.6 µM (inactive)	75.9 µM (inactive)	> 100 µM (inactive)	> 100 µM (inactive)	60.5 µM (inactive)		39 µM (inactive)	> 100 µM (inactive)	15.3 µM (inactive)	> 100 µM (inactive)	61 µM (inactive)	32.7 µM (inactive)	> 100 µM (inactive)		51.5 µM (inactive)
O=[N+]([O-])/C(C(Cl)=C(Cl)Cl)=C1\NCCO1	> 100 µM (inactive)	> 100 µM (inactive)	22.9 µM (inactive)	> 100 µM (inactive)	> 100 µM (inactive)	> 100 µM (inactive)	> 100 µM (inactive)	> 100 µM (inactive)	> 100 µM (inactive)	> 100 µM (inactive)	> 100 µM (inactive)	52.5 µM (inactive)	> 100 µM (inactive)	> 100 µM (inactive)		> 100 µM (inactive)	> 100 µM (inactive)	> 100 µM (inactive)	> 100 µM (inactive)
O=P1(O)c2ccccc2CSCc2ccccc21	> 100 µM (inactive)	> 100 µM (inactive)	> 100 µM (inactive)	> 100 µM (inactive)	> 100 µM (inactive)	> 100 µM (inactive)	> 100 µM (inactive)	> 100 µM (inactive)	> 100 µM (inactive)	> 100 µM (inactive)	> 100 µM (inactive)	> 100 µM (inactive)	> 100 µM (inactive)	> 100 µM (inactive)		> 100 µM (inactive)	> 100 µM (inactive)	> 100 µM (inactive)	> 100 µM (inactive)
N#C/C(=C\N1CCNC1=S)C(=O)c1ccc2ccccc2c1	> 100 µM (inactive)	> 100 µM (inactive)		> 100 µM (inactive)	> 100 µM (inactive)	> 100 µM (inactive)	> 100 µM (inactive)	> 100 µM (inactive)	> 100 µM (inactive)	> 100 µM (inactive)	> 100 µM (inactive)	> 100 µM (inactive)	> 100 µM (inactive)	> 100 µM (inactive)	> 100 µM (inactive)	71.4 µM (inactive)	> 100 µM (inactive)	> 100 µM (inactive)	> 100 µM (inactive)
C/C=C/C(C/C=C(\C)CO[Si](C)(C)C(C)(C)C)O[Si](C)(C)C(C)(C)C (stereo not given)	> 100 µM (inactive)	> 100 µM (inactive)	> 100 µM (inactive)	> 100 µM (inactive)	> 100 µM (inactive)	> 100 µM (inactive)	> 100 µM (inactive)	> 100 µM (inactive)	> 100 µM (inactive)	> 100 µM (inactive)	> 100 µM (inactive)	> 100 µM (inactive)	> 100 µM (inactive)	> 100 µM (inactive)	> 100 µM (inactive)	> 100 µM (inactive)		> 100 µM (inactive)	> 100 µM (inactive)
CS/C(=N/S(=O)(=O)c1ccc(Cl)cc1)NCCCN/C(=N\S(=O)(=O)c1ccc(Cl)cc1)SC	8.43 µM (inactive)	12.1 µM (inactive)	16.7 µM (inactive)	21.5 µM (inactive)	22.8 µM (inactive)	6.11 µM (inactive)	15.4 µM (inactive)	6.21 µM (inactive)	12.1 µM (inactive)		12.9 µM (inactive)	6.93 µM (inactive)	9.48 µM (inactive)	25.8 µM (inactive)	15.8 µM (inactive)	4.34 µM (inactive)	29.4 µM (inactive)	23.3 µM (inactive)	
CSc1ccc2c(c1)C(N1CCN(C)CC1)Cc1ccccc1S2 (stereo not given)	9.79 µM (inactive)	3.25 µM (inactive)	0.219 µM (active)	1.98 µM (inactive)	2.33 µM (inactive)	1.94 µM (inactive)	1.95 µM (inactive)	3.47 µM (inactive)	3.07 µM (inactive)	13.9 µM (inactive)	5.56 µM (inactive)	8.91 µM (inactive)	3.43 µM (inactive)		< 0.01 µM (active)	2.3 µM (inactive)	4.43 µM (inactive)	3.65 µM (inactive)	2.99 µM (inactive)
Cc1ccc(C(O)c2cnc(C)n2Cc2ccccc2)cc1 (stereo not given)	> 100 µM (inactive)	> 100 µM (inactive)		> 100 µM (inactive)	> 100 µM (inactive)	> 100 µM (inactive)	> 100 µM (inactive)	> 100 µM (inactive)	> 100 µM (inactive)	> 100 µM (inactive)	85.3 µM (inactive)	> 100 µM (inactive)	> 100 µM (inactive)	> 100 µM (inactive)	> 100 µM (inactive)	> 100 µM (inactive)	> 100 µM (inactive)	> 100 µM (inactive)	> 100 µM (inactive)
O=S(=O)(O)c1ccc(/N=N/c2ccccc2)cc1	> 100 µM (inactive)	> 100 µM (inactive)	> 100 µM (inactive)	> 100 µM (inactive)	> 100 µM (inactive)	> 100 µM (inactive)	> 100 µM (inactive)	> 100 µM (inactive)	> 100 µM (inactive)	> 100 µM (inactive)	> 100 µM (inactive)	> 100 µM (inactive)	> 100 µM (inactive)	> 100 µM (inactive)		> 100 µM (inactive)	> 100 µM (inactive)	> 100 µM (inactive)	> 100 µM (inactive)
CC1CCCC(C(=O)CC2CC(=O)NC(=O)C2)C1=O (stereo not given)	> 100 µM (inactive)	> 100 µM (inactive)	> 100 µM (inactive)	> 100 µM (inactive)	> 100 µM (inactive)	> 100 µM (inactive)	> 100 µM (inactive)	> 100 µM (inactive)	> 100 µM (inactive)	> 100 µM (inactive)	> 100 µM (inactive)	> 100 µM (inactive)	> 100 µM (inactive)	> 100 µM (inactive)	> 100 µM (inactive)	> 100 µM (inactive)	> 100 µM (inactive)	> 100 µM (inactive)	
CNC(=O)OCCN1c2ccccc2Sc2ccccc21	57.5 µM (inactive)	73.6 µM (inactive)	> 100 µM (inactive)	> 100 µM (inactive)	> 100 µM (inactive)	> 100 µM (inactive)	> 100 µM (inactive)	0.64 µM (active)	> 100 µM (inactive)	> 100 µM (inactive)	> 100 µM (inactive)	63.2 µM (inactive)	> 100 µM (inactive)	> 100 µM (inactive)		> 100 µM (inactive)	> 100 µM (inactive)	36.4 µM (inactive)	> 100 µM (inactive)
O=C(Nc1ccc(Cl)cc1)NS(=O)(=O)c1coc2ccccc2c1=O	> 10 µM (inactive)	> 10 µM (inactive)	> 10 µM (inactive)	> 10 µM (inactive)	> 10 µM (inactive)		> 10 µM (inactive)	> 10 µM (inactive)	> 10 µM (inactive)	> 10 µM (inactive)	> 10 µM (inactive)	> 10 µM (inactive)	> 10 µM (inactive)	> 10 µM (inactive)	> 10 µM (inactive)	> 10 µM (inactive)	> 10 µM (inactive)	> 10 µM (inactive)	> 10 µM (inactive)
C=C(Br)COc1ccc2c(C)cc(=O)oc2c1	64.7 µM (inactive)	60.5 µM (inactive)	> 100 µM (inactive)	1.99 µM (inactive)	66.4 µM (inactive)	49 µM (inactive)	> 100 µM (inactive)	0.951 µM (active)	> 100 µM (inactive)	90.4 µM (inactive)	47.4 µM (inactive)	86.3 µM (inactive)	69 µM (inactive)	> 100 µM (inactive)		44.2 µM (inactive)	65.3 µM (inactive)	99.1 µM (inactive)	42.6 µM (inactive)
